Test results taken from PMC12624727, “Benzodeazaoxaflavin Sirtuin Inhibitors Inhibit Schistosoma mansoni Sirt2 and Cause Phenotypic Changes and Lethality in Schistosomula and Adult Worm Stages” (ACS Infectious Diseases, 2025).

Experiments:
[1] = tested on: adult S. mansoni (Puerto Rican strain) worm pairs; conditions: Puerto Rican strain; for lethality of adult worm pairs: 20 μM, by 72 h
[2] = MTT viability assay on BJ fibroblasts; conditions: human
[3] = tested on: adult S. mansoni (Liberian strain) worm pairs; assay: Adult worm (Liberian strain) in vitro viability assay; assay type: cell-based, Schistosoma mansoni; conditions: for adult worms' percentage of viability reduction, 72 h: SD in brackets; for IC50: Schistosoma mansoni, 72 h, Liberian strain
[4] = tested on: S. mansoni newly transformed schistosomula (NTS), Liberian strain; assay: NTS (Liberian strain) in vitro viability assay; assay type: cell-based, Schistosoma mansoni; conditions: for percentage of reduction of NTS viability, 72 h: SD in brackets; for IC50: 72 h, Liberian strain
[5] = tested on: adult S. mansoni (Puerto Rican strain) worm pairs; assay: microbe, parasite or virus in culture; conditions: Schistosoma mansoni, 24 h, read-out: mortality in adult worm pairs
SmSirt2 = SmSirt2 (Schistosoma mansoni, UniProt T1VXA1); assay: In vitro SmSirt2 inhibition assay, homogeneous fluorescence-based, ZMAL substrate; assay type: biochemical
SmSirt2, sequence (T1VXA1 entry or part of it): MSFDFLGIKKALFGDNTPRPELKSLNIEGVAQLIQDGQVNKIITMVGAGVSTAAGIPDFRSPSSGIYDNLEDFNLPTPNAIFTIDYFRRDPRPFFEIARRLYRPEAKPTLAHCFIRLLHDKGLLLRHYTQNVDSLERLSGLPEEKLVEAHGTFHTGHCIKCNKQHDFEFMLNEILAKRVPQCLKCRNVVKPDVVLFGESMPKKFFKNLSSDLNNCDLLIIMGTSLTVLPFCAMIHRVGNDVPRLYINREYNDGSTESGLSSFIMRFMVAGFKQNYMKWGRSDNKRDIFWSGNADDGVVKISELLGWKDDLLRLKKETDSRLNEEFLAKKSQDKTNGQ
Procedure: We first improved the synthetic method to obtain most of the BDFs analogues 1–12 (Figure ), and we tested them against recombinant SmSirt2 using a homogeneous, fluorescent-based in vitro assay with (Z)-(Ac)-Lys-7-amino-4-methylcoumarin (ZMAL) as the substrate.
The BDF4 compounds 1–12 were tested for their inhibitory activity against SmSirt2 using a fluorescence-based assay with ZMAL as the substrate. Their activity against hSirt2 has been previously reported. ,
For the screening of compounds 1–12, a homogeneous fluorescence-based assay previously described by some of us was used to determine SmSirt2 activity.

hSirt2 = conditions: ref footnote b (reference number not given); cited from earlier work
[6] = tested on: S. mansoni (Puerto Rican) worm pairs; assay: Worm pairing of adult worm pairs (Puerto Rican strain); assay type: cell-based, Schistosoma mansoni; conditions: % of DMSO control
[7] = tested on: S. mansoni (Puerto Rican) worm pairs; assay: Egg laying by adult worm pairs (Puerto Rican strain); assay type: cell-based, Schistosoma mansoni; conditions: % of DMSO control
[8] = tested on: histone H3 / H4 acetylation in S. mansoni (Puerto Rican strain) worm pairs; assay: Western blot of histone and lysine acetylation in worm extracts; assay type: cell-based, Schistosoma mansoni; conditions: 10 μM, 48 h; histone-enriched fraction
in vitro = conditions: human
[9] = tested on: cytochrome c release in S. mansoni (Puerto Rican strain) worms; assay: Western blot of cytosolic cytochrome c in worm extracts; assay type: cell-based, Schistosoma mansoni; conditions: 25 μM, 48 h (legend of Figure 5)
Procedure: To determine if the Sirt2 inhibitors trigger apoptosis through the cytochrome c pathway, we examined cytochrome c release from mitochondria.
5 Effects of selected Sirt2 inhibitors on cytosolic cytochrome c expression. Representative immunoblots of cytosolic protein fractions extracted from S. mansoni adult worm pairs are shown. The worms were treated with the indicated Sirt2 inhibitors (10 μM) for 48 h. DMSO (vehicle), TSA (1 μM, 24 h), a HDAC pan-inhibitor, and salermide (Sal 25 μM, 48 h), a Sirt1/Sirt2 inhibitor, were used as controls. The α-tubulin signal was used for normalization. Quantitation of cytochrome c relative to the vehicle-treated sample is shown.
Ten pairs of adult parasites were treated with selected Sirt inhibitors for either 24 or 48 h at partially lethal and sublethal concentrations. The concentrations of compounds were chosen based on the viability curve. Positive controls in the experiments included TSA, a pan-HDAC inhibitor, and salermide, a hSirt1/2 inhibitor, while DMSO (vehicle) served as negative control. Parasites were lysed in a 0.5% Triton PBS buffer by strokes, and the lysates were then centrifuged to collect the soluble fractions (cytosol). The insoluble fractions were extracted with 0.25 N HCl at +4 °C for 18 h, followed by neutralization with 1/10 volume of 2 N NaOH. Samples were analyzed using 15% SDS-PAGE and Western blotting. […]

schistosomula = tested on: schistosomula; parameters: method as in not given; conditions: 48 h of treatment, 10–20 μM; ref not given; cited from earlier work

| SMILES | lethality of adult worm pairs [1] | IC50 at 72 h [2] [µM] | adult worms' percentage of viability reduction, 72 h ([3]; 20 μM) | IC50 [3] [µM] | percentage of reduction of NTS viability, 72 h ([4]; 0.1 μM) | percentage of reduction of NTS viability, 72 h ([4]; 1 μM) | percentage of reduction of NTS viability, 72 h ([4]; 10 μM) | percentage of reduction of NTS viability, 72 h ([4]; 20 μM) | IC50 [4] [µM] | IC50 ([4]; Schistosoma mansoni) [µM] | mortality at 20 µM [5] [%] | IC50 (hSirt2) [µM] | % worm pairing ([6]; 1 μM, 24 h, single experiment) [%] | % worm pairing ([6]; 1 μM, 48 h, single experiment) [%] | % worm pairing ([6]; 1 μM, 72 h, single experiment) [%] | % worm pairing ([6]; 10 μM, 24 h, SD in brackets) | % worm pairing ([6]; 10 μM, 48 h, SD in brackets) | % worm pairing ([6]; 10 μM, 72 h, SD in brackets) | % worm pairing ([6]; 20 μM, 24 h, SD in brackets) | % worm pairing ([6]; 20 μM, 48 h, SD in brackets) | other results |
| --- | --- | --- | --- | --- | --- | --- | --- | --- | --- | --- | --- | --- | --- | --- | --- | --- | --- | --- | --- | --- | --- |
| O=c1nc2oc3ccc4ccccc4c3cc-2c(=O)n1C1CCCCC1 [Compound 7, 10-Cyclohexyl-9H-benzo[5,6]chromeno[2,3-d]pyrimidine-9,11(10H)-dione] | complete lethality | 60 | 100 (0) % | 1.24 | 43.8 (2.1) % | 67.7 (0) % | 100 (0) % | 100 (0) % | 0.21 | ~0.2 | 70 to 80 | 58.5 ± 2.9 | 100 | 100 | 100 | 100 (0) % | 100 (0) % | 100 (0) % | 0 (0) % | 0 (0) % | adult worms' percentage of viability reduction, 72 h ([3]; 1 μM): 23.9 (0) %; inhibition at 50 µM (SmSirt2): 24.6%; % worm pairing ([6]; 20 μM, 72 h, SD in brackets): 6 (11) %; % egg laying ([7]; 1 μM, 24 h, single experiment): 75%; % egg laying ([7]; 1 μM, 48 h, single experiment): 66%; % egg laying ([7]; 1 μM, 72 h, single experiment): 75%; % egg laying ([7]; 10 μM, 24 h, SD in brackets): 32 (4) %; % egg laying ([7]; 10 μM, 48 h, SD in brackets): 46 (6) %; % egg laying ([7]; 10 μM, 72 h, SD in brackets): 44 (10) %; % egg laying ([7]; 20 μM, 24 h, SD in brackets): 14 (12) %; % egg laying ([7]; 20 μM, 48 h, SD in brackets): 9 (8) %; acetylation of histone H3 (pan-acetylation) [8]: increase in acetylation of histone H3; acetylation of histone H4 (pan-acetylation) [8]: but not histone H4 |
| O=c1nc2oc3ccc4ccccc4c3cc-2c(=O)n1Cc1ccccc1 [Compound 9, 10-Benzyl-9H-benzo[5,6]chromeno[2,3-d]pyrimidine-9,11(10H)-dione] | complete lethality | 50.6 | 61.2 (5.6) % | < 1 | 36 (2) % | 100 (0) % | 100 (0) % | 100 (0) % | 0.11 | ~0.1 | 70 to 80 | 15.9 ± 0.6 | 100 | 100 | 100 | 80 (20) % | 93 (11) % | 100 (0) % | 6 (11) % | 20 (30) % | IC50 (SmSirt2; read-out: IC50 SmSirt2, ZMAL substrate): 7.3 ± 0.5 µM; % worm pairing ([6]; 20 μM, 72 h, SD in brackets): 20 (30) %; % egg laying ([7]; 1 μM, 24 h, single experiment): 98%; % egg laying ([7]; 1 μM, 48 h, single experiment): 98%; % egg laying ([7]; 1 μM, 72 h, single experiment): 126%; % egg laying ([7]; 10 μM, 24 h, SD in brackets): 72 (74) %; % egg laying ([7]; 10 μM, 48 h, SD in brackets): 71 (36) %; % egg laying ([7]; 10 μM, 72 h, SD in brackets): 67 (28) %; % egg laying ([7]; 20 μM, 24 h, SD in brackets): 11 (7) %; % egg laying ([7]; 20 μM, 48 h, SD in brackets): 8 (5) %; % egg laying ([7]; 20 μM, 72 h, SD in brackets): 7 (6) %; acetylation of histone H3 (pan-acetylation) [8]: increase in acetylation of histone H3; acetylation of histone H4 (pan-acetylation) [8]: but not histone H4 |
| CC(C)=CCC[C@]1(C)C=Cc2c(O)c3c(c(CC=C(C)C)c2O1)O[C@]12C(=C[C@@H]4C[C@H]1C(C)(C)O[C@@]2(C/C=C(/C)C(=O)O)C4=O)C3=O [GA, gambogic acid] |  |  |  |  |  |  |  |  |  |  |  |  |  |  |  |  |  |  |  |  | IC50 at 72 h (in vitro): 0.34 µM |
| CC(C(=O)Nc1cccc(/N=C/c2c(O)ccc3ccccc23)c1)c1ccccc1 (stereo not shown) [salermide] |  |  |  |  |  |  |  |  |  |  |  |  |  |  |  |  |  |  |  |  | effect on adult worm viability ([1]; after 72 h, same conditions): did not affect adult worm viability; cytosolic cytochrome c level [9]: increased levels of cytochrome c; DNA fragmentation in schistosomula (TUNEL assay) (schistosomula): cause DNA fragmentation |
